# Data taken from patent publication US9724334B1, “Method for treating a neurodegenerative disease or depression comprising administering derivatives of 2-amino-2-(1-dodecyl-1H-1,2,3-triazol-4-yl)propane-1,3-diol” (Kyungpook National University Industry-Academic Cooperation …, priority 2016, dated 2017).
# Target: T1, ASM (acid sphingomyelinase) (Homo sapiens, UniProt P17405)
# T1 construct: fibroblasts (PS1 fibroblasts) derived from Alzheimer's disease patients, followed by the measurement of the change of ASM activity; host or cells: human fibroblast cell lines (PS1, from Alzheimer's disease patients)
# T1 sequence (P17405 47-631): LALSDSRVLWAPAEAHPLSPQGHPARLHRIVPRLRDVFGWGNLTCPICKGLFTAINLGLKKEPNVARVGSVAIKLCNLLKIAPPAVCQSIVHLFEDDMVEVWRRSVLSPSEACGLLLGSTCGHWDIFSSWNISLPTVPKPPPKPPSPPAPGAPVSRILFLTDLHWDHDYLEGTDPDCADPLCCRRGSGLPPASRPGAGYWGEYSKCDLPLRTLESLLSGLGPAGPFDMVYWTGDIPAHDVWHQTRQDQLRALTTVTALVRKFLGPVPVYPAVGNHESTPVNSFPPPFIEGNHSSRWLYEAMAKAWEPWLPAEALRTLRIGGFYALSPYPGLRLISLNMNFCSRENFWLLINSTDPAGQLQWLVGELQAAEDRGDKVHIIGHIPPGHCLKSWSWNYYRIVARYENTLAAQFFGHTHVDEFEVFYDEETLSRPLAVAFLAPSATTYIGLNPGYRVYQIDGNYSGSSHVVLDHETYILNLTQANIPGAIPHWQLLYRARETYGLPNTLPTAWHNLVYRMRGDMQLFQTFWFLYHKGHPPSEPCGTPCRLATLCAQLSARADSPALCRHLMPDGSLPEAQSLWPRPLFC
# Experiment: ASM activity in fibroblasts derived from Alzheimer's disease patients (PS1 fibroblasts)
# Type: cell-based
# Parameters: dose or concentration left out as unconfirmed
# Conditions: PS1 fibroblasts with increased ASM activity; versus untreated PS1 fibroblasts
# Experimental: Human fibroblast cell lines (normal and PS1) were obtained from Coriell Institute and cultured in DMEM containing 15% FBS under the condition of 5% CO2 at 37° C. Subsequently, the cell lines were treated with the ASM inhibitory compound of the Chemical Formula 1, amitriptyline (AMI) and FTY720, followed by measuring the change of ASM activity. The concentration levels of ASM were measured as follows. Specifically, a microliter mouse plasma, brain tissue and 3 μl of fibroblast samples were mixed with ASM activity buffer and stored at 37° C. 114 μl of ethanol was added to terminate the hydrolysis reaction, followed by centrifugation. 30 μl of the supernatant was transferred to a glass vial, of which 5 μl was applied to the UPLC system. The ASM concentration levels were quantified by comparison with Bodipy (aminoacetaldehyde) conjugated with sphingomyelin and ceramide. Extraction and quantification of the sphingomyelin and ceramide were performed by extracting lipids from known method samples and resuspending the dried lipid extract in 25 μl of 0.2% Igepal CA-630 (Sigma-Aldrich). Each lipid level was quantified using the UPLC system. In order to confirm the ASM inhibitory effect of the compound developed according to the present invention, the ASM inhibitory compound of the Chemical Formula 2, AMI and FTY720 were treated […] concentration, respectively, in the fibroblasts (PS1 fibroblasts) derived from Alzheimer's disease patients, followed by the measurement of the change of ASM activity.
structure (smiles),measurement,value
"CCCCCCCCc1ccc(CCC(N)(CO)CO)cc1 [FTY720, reference compound]",change of ASM activity,markedly reduced
